The source made the active and inactive calls.
Tests used:
Hexokinase HKDC1 = Hexokinase HKDC1 (Homo sapiens, UniProt Q2TB90); assay: inhibition of HKDC1 glucose phosphorylation – biochemical, W721R variant, dose response (AID 504729); format: functional
SUMO-activating enzyme = SUMO-activating enzyme (Homo sapiens, UniProt Q9UBT2); assay: blockers of SAE1/SAE2–UBC9 SUMO transfer – biochemical, HTRF, uHTS, primary screen (AID 2006); format: protein-complex assay
INS1 = assay: INS-1E survival protection against cytokine death – cell-based, luminescence, retest, dose response (AID 449756); format: functional;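 note: cell death triggered by IL-1 beta plus TNF-alpha plus IFN-gamma mixture; protective hits raise ATP signal compared with cytokine alone wells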
[1] = target: T1, Ubiquitin-conjugating enzyme E2 N (Homo sapiens, UniProt P61088); format: functional
T1 sequence (P61088 whole entry): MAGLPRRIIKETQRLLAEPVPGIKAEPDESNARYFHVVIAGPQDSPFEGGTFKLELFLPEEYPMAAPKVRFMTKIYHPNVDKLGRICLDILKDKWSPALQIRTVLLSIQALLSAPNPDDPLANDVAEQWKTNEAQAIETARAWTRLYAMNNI

Vero = assay: cells; format: functional; details: Chlorocebus sabaeus
[2] = target: Heat shock protein HSP 90-alpha (Homo sapiens, UniProt P07900); format: functional, organism-based
Melanocortin receptor 4 = Melanocortin receptor 4 (Homo sapiens, UniProt P32245); format: functional, cell-based;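 note: Cell-based assay with luminescence read-out, confirmatory dose-response testing for agonist activity of biased ligands at MC4R; human U2OS cells with tagged receptor and beta-arrestin; potency of agonists that increase receptor coupling to beta-arrestin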
Sequence of Melanocortin receptor 4 (P32245 whole entry): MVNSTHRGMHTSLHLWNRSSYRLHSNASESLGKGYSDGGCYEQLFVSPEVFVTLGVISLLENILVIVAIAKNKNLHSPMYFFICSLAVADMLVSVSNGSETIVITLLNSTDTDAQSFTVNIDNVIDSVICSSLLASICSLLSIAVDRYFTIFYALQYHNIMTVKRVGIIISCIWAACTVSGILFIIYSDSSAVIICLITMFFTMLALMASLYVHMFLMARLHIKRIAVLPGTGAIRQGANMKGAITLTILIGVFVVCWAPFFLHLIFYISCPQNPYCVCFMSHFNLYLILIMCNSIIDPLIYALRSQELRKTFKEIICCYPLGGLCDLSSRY

[3] = target: T1, Ubiquitin-conjugating enzyme E2 N; format: functional; remark: listed apart in the source
[4] = non-specific 3'UTR reporter inhibition in Clone20-Shn3RL – cell-based, Renilla luciferase, cherry-picked, counter-screen for Shn3 inhibitor project, dose response (AID 624133); format: functional
[5] = target: Neurotensin receptor type 1 (Homo sapiens, UniProt P30989); format: functional;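 note: Image-based confirmatory dose-response assay measuring agonist activity at NTR1; NTR1-expressing U2OS osteosarcoma cells imaged for beta-arrestin GFP spot formation; agonist potency where compounds increase beta-arrestin recruitment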
Sequence of Neurotensin receptor type 1 (P30989 whole entry, the tested form may be a part): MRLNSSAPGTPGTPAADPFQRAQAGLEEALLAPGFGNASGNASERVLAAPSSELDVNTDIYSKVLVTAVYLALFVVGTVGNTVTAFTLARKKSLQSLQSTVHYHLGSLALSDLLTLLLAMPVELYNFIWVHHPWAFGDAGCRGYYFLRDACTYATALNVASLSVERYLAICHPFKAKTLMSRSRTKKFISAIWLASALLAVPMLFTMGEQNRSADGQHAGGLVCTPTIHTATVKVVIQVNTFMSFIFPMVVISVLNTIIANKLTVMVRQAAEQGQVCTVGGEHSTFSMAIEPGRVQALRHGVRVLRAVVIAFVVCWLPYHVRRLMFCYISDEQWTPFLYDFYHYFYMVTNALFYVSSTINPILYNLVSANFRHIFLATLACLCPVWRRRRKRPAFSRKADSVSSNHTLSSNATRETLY

[6] = target: T2, Polyadenylate-binding protein 1 (Homo sapiens, UniProt P11940); assay: MLLE domain peptide-binding blockers, IC50 – biochemical, fluorescence polarization, FITC-PAM2 peptide, dose response (AID 602259); format: functional; details: read-out: IC50_Mean
T2 sequence (P11940 whole entry, the tested form may be a part): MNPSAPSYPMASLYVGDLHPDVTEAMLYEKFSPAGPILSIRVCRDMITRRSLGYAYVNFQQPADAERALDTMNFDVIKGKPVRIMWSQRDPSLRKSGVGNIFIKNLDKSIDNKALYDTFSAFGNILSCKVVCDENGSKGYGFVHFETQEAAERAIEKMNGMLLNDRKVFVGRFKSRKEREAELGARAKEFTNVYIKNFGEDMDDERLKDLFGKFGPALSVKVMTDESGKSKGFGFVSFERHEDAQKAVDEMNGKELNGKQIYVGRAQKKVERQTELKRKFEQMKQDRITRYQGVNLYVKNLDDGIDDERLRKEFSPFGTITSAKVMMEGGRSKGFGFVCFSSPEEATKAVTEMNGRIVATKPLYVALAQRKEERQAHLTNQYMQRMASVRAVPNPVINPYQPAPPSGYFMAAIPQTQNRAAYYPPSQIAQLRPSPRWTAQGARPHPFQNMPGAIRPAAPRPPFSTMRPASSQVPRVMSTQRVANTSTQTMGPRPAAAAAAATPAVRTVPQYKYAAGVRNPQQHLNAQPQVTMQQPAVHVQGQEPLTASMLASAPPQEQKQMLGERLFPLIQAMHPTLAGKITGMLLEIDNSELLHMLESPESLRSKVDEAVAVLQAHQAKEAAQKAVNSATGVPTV

[7] = target: T2, Polyadenylate-binding protein 1; assay: MLLE binding blockers, Cy5 peptide tracer – biochemical, fluorescence polarization, Cy5-PAM2 peptide, secondary, miRNA deadenylation inhibitor project, dose response (AID 602260); format: functional; details: read-out: IC50_Mean
Caspase-9 = Caspase-9 (Homo sapiens, UniProt P55211); assay: inhibitors of purified CASP9 protease – biochemical, fluorescence, plate reader, cherry-picked samples, selectivity assay for caspase-6 inhibitor project, dose response (AID 743293)
Sequence of Caspase-9 (P55211 1-315 limits assumed): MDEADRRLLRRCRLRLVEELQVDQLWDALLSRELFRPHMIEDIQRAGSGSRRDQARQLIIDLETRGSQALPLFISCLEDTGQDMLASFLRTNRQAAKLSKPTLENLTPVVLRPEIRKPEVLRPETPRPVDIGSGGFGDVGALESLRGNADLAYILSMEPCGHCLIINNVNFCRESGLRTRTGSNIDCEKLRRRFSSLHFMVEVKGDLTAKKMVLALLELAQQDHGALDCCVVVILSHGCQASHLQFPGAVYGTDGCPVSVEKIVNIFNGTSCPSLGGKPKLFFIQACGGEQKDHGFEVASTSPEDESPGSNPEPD
Sequence of Caspase-9 (P55211 331-416 limits assumed): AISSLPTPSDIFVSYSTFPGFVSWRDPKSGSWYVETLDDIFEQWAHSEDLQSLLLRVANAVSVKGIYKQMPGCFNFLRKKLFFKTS

[8] = target: Tyrosyl-DNA phosphodiesterase 2 (Homo sapiens, UniProt O95551); assay: potency against TDP2 phosphodiesterase activity – biochemical, epi absorbance, IC50, dose response (AID 743297)
Sequence of Tyrosyl-DNA phosphodiesterase 2 (O95551 whole entry): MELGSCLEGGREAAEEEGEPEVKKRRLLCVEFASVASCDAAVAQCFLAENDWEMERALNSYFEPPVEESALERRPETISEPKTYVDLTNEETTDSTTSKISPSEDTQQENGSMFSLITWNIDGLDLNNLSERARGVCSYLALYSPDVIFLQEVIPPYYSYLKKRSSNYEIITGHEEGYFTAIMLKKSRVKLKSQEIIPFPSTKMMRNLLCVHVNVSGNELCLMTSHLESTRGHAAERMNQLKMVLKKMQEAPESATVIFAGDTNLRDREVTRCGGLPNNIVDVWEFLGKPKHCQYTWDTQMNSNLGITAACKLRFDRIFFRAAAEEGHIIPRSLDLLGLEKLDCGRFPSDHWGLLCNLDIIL

[9] = target: T3, DNA repair protein RAD52 homolog (Homo sapiens, UniProt P43351); format: functional, biochemical
T3 sequence (P43351 whole entry): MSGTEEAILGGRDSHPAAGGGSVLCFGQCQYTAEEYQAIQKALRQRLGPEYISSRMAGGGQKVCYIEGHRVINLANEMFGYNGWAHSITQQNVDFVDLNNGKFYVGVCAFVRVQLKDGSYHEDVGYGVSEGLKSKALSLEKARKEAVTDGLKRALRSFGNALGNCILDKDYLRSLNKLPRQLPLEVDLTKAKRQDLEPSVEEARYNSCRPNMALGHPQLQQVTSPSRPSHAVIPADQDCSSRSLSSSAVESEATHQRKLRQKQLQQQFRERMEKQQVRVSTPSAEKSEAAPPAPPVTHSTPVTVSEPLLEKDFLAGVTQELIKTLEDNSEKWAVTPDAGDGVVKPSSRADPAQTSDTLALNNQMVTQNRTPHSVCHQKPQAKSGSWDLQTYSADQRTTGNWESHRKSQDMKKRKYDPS

Caspase-3 = target: T4, Caspase-3 (Homo sapiens, UniProt P42574); assay: human caspase-3 protease activity blockade – biochemical, fluorescence, cherry-picked samples, selectivity assay for caspase-6 allosteric inhibitor project, dose response (AID 743291)
T4 sequence (P42574 whole entry): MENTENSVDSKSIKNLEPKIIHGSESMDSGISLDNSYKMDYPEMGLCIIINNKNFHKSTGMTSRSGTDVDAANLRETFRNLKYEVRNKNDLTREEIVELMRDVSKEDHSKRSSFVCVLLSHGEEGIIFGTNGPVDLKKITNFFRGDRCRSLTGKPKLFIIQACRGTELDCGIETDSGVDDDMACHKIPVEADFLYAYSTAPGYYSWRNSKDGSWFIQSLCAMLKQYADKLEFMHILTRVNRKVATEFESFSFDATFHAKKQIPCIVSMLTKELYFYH

Caspase-8 = Caspase-8 (Homo sapiens, UniProt Q14790); assay: inhibitors of purified CASP8 protease – biochemical, Z-IETD-R110 fluorescence, cherry-picked samples, selectivity assay for caspase-6 inhibitor project, dose response (AID 743294)
Sequence of Caspase-8 (Q14790 217-374 limits assumed): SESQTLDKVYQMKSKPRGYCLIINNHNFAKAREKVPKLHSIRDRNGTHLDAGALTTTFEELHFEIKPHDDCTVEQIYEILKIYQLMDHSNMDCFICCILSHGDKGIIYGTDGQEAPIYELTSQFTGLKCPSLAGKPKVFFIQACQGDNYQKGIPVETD
Sequence of Caspase-8 (Q14790 385-479 limits assumed): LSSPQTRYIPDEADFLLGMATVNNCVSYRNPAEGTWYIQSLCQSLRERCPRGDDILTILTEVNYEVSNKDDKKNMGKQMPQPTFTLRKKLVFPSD

Sequence of SUMO-activating enzyme (Q9UBE0 whole entry): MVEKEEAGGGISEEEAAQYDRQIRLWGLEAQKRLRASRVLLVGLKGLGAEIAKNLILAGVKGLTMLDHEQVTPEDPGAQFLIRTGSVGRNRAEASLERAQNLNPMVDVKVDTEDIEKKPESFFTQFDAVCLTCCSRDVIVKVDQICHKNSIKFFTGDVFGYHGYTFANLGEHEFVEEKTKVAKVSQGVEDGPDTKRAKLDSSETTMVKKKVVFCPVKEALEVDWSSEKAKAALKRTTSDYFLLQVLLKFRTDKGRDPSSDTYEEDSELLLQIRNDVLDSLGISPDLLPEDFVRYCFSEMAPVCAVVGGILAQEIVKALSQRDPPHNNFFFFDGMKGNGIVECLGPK
Sequence of SUMO-activating enzyme (Q9UBT2 whole entry): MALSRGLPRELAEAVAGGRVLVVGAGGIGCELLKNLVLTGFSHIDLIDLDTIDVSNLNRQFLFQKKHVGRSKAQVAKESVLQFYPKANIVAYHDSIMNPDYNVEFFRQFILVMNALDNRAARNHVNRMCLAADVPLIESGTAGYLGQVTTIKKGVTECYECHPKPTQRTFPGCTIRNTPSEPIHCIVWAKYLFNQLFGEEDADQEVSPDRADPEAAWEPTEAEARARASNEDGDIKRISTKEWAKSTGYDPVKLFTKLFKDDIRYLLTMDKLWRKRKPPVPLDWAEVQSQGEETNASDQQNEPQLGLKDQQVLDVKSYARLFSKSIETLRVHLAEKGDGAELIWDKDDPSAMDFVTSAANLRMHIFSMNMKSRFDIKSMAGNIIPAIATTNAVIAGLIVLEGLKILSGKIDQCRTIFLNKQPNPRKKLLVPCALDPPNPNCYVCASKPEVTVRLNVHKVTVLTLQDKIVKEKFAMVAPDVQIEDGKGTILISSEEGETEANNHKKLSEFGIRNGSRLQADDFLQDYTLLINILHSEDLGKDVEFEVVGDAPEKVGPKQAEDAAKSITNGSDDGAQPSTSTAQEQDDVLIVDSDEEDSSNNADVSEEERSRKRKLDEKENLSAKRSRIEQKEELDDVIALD
Sequence of Hexokinase HKDC1 (Q2TB90 whole entry): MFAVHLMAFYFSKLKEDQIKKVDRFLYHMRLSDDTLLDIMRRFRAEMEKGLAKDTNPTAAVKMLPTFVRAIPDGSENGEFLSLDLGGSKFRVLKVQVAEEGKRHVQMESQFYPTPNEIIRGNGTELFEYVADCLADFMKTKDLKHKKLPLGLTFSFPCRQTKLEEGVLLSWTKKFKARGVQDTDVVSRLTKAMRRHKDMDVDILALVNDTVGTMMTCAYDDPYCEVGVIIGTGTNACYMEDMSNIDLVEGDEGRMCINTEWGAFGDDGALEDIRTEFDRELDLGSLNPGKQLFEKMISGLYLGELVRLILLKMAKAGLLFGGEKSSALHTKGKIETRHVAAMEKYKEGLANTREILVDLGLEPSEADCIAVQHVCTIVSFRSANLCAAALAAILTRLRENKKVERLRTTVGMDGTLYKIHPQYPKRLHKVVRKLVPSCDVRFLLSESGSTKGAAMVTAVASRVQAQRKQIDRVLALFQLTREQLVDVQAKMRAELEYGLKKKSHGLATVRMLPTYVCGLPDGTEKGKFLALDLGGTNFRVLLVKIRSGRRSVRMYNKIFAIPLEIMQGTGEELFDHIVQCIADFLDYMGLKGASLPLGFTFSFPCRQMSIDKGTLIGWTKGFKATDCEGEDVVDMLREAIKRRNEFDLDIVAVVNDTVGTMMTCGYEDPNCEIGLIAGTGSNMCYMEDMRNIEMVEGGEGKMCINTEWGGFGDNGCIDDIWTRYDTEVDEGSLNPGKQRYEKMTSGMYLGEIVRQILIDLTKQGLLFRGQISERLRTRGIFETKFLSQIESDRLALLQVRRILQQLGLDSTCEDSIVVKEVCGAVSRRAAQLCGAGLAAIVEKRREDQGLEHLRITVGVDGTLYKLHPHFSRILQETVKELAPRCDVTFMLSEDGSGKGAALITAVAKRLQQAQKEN

For O=C1C(Cl)=C(N2CCC(C(=O)O)CC2)C(=O)c2ccccc21, which IC50 (Hexokinase HKDC1) is on record?
Its IC50 is 8.29 µM (active).

And the IC50 (SUMO-activating enzyme)?
Its IC50 is 24 µM (active).

What does the source list for CCCCCCCCCCOC(=O)Cn1c(COc2ccc(OC)cc2)[n+](C)c2ccccc21?
AC50 (INS1; Rattus norvegicus, INS1): 3.65 µM (active); AC50 (INS1; ins1): 3.47 µM (active); IC50 [1]: 11 µM (active); CC50 (Vero): > 25 µM (active); AC50 [2]: 38.2 µM (active); EC50 (Melanocortin receptor 4): > 89.2 µM (inactive); IC50 [3]: 12.5 µM (active); AC50 [4]: 3.44 µM (active); EC50 [5]: 15.8 µM (active)

For COC1=C(c2ccccc2)C(=O)c2ccccc2C1=O, which IC50 [6] is on record?
Its IC50 is > 66 µM (inactive).

And the IC50 [7]?
The IC50 was > 66 µM (inactive).

Which AC50 (Caspase-9) does the source give for COc1cc2c(cc1OC)-c1c(OC)c(OC)cc3c1[C@H](C2)N(C)CC3 here?
The AC50 was 39.9 µM (active).

What about the IC50 [8] of the same molecule?
Its IC50 is 6.22 µM (active).

And the AC50 [9]?
The AC50 was 2.86 µM (active).

And the AC50 (Caspase-3)?
Its AC50 is 6.27 µM (active).

And the AC50 (Caspase-8)?
Its AC50 is 48.1 µM (active).
